# Data published in US20030170606A1, “High-throughput screening assays for modulators of mitochondrial membrane potential” (priority 1999, published 2003).
# Test system: UCP1
# Test: DiSC3 fluorescence assay in permeabilized UCP1-expressing yeast cells (YUCP)
# Assay type: cell-based
# Protocol: To make the cells permeable to externally added compounds, the yeast cells were treated with zymolyase. The spheroplasts were cultured in full media for 0.5 hours and pelleted. The pellets were resuspended in a lysis buffer and stored at about −80° C. The permeabilized cells can be kept in this way for at least one half year without loss of activity.
# To assess the effects of known modulators of uncoupling activity and of uncoupling protein activity, the following fluorescence intensity measurements were carried out: Permeabilized cells were combined with the fluorescent dye DiSC3 in buffer and incubated for about 5-60 min., usually less than about 30 min. The resulting fluorescence intensity (λexc=620 nm, λem=670 nm) corresponded to the basal ΔΨm. The mitochondria accumulate the fluorescent dye into the matrix in proportion to the ΔΨm, and at basal ΔΨm, the DiSC3 fluorescence is substantially quenched.
# A Beckman Multimek™ 96 Automated 96-channel Pipettor was programmed to mix test compounds from master plates with the buffer containing freshly premixed permeabilized cells (0.1 OD) and DiSC3 (0.1 μM) and transfer this mixture to black 96-well plates. An LJL analyst was used in the fluorescence intensity mode to measure the DiSC3 fluorescence. […] A total of about 3,300 compounds were screened in this way to test the feasibility of this method.
# Data are presented in FIG. 7B after transformation of the fluorescence data according to (Fcompd/Fcontrol−1), where Fcompd is the fluorescence intensity of a given well (as shown in FIG. 7A), and Fcontrol is the basal fluorescence obtained as an average intensity in column 1 where no compound was added (instead an equivalent volume of dimethyl sulfoxide (DMSO) was added).
compound,measurement,setting,value
Nc1nc2c(ncn2[C@@H]2O[C@H](COP(=O)(O)OP(=O)(O)O)[C@@H](O)[C@H]2O)c(=O)[nH]1 [GDP],DiSC3 fluorescence level upon addition of compound,100 μM added in the presence of BrPalm,reverted back to the level close to basal intensity
"CCCCCCCCCCCCCCC(Br)C(=O)O (stereo not shown) [BrPalm, 2-bromo-palmitate]",DiSC3 fluorescence level upon addition of compound,5 to 10 μM,higher fluorescence level
"N#CC(C#N)=NNc1ccc(Cl)cc1 [CCCP, carbonyl-cyanide p-chlorophenylhydrazone]",DiSC3 fluorescence level upon addition of compound,1 μM,fluorescence reaches a maximum level
[Cl-].[K+] [KCl],change in DiSC3 fluorescence intensity (plasma membrane potential control),0 to 125 mM,no change in fluorescence intensity
